How the values were obtained:
[1] = system: HBeAg (surrogate marker for cccDNA) in HepDES19 cells; assay: Engineered HepDES19 primary screen assay (HBeAg ELISA); assay type: cell-based, HBV; settings: Hepatitis B virus, HepDES19, 120 h, read-out: IC50 (HBeAg level, HepDES19 primary screen assay), HepDES19 cells, 5 days compound incubation, HBeAg ELISA
In short: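 IC50 values come from 4-parameter logistic fits of HBeAg ELISA signal, the cccDNA surrogate, with CCK-8 run in parallel for viability. Compounds at half-log dilutions with 1% DMSO were applied for 5 days at 37 °C to HepDES19 cells previously cultured 8 days without Tet.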

[2] = system: HBsAg in HBV-infected PHH; assay: Cryopreserved primary human hepatocytes (PHH) HBV infection assay, extracellular HBsAg (CLIA); assay type: cell-based; settings: Hepatitis B virus, Hepatocyte, 216 h, read-out: HBsAg IC50, Cryopreserved PHH infected with HBV, 9 days post-compound treatment, extracellular HBsAg
Experimental: This assay is used to confirm the anti-HBV effect of the compounds in HBV PHH infection assay. Cryopreserved PHH (BioreclamationIVT, Lot YJM) was thawed at 37° C. and gently transferred into pre-warmed InVitroGRO HT medium (BioreclamationIVT, Cat. S03317). The mixture was centrifuged at 70 relative centrifugal force (RCF) for 3 minutes at RT, and the supernatant was discarded. Pre-warmed InVitroGRO CP medium (BioreclamationIVT, Cat #S03316) was added to the cell pellet to gently re-suspend cells. The cells were seeded at the density of 5.8×10^4 cells per well to collagen I coated 96-well plate (Gibco, Cat. A1142803) with the InVitroGRO CP medium. All plates were incubated at 37° C. with 5% CO2 and 85% humidity.
At 20 hours after plating, the medium was changed to PHH culture medium (Dulbecco's Modified Eagle Medium (DMEM)/F12 (1:1) (Gibco, Cat. 11320-033), 10% fetal bovine semm (Gibco Cat. 10099141), 100 U/mL penicillin, 100 μg/mL streptomycin (Gibco, Cat. 151401-122), […] (Invitrogen Cat. PHG0311L), 20 ng/mL dexamethasone (Sigma, Cat. D4902) and 250 ng/mL human recombinant insulin (Gibco, Cat. 12585-014)). And the cells were incubated at 37° C. with 5% CO2 and 85% humidity for 4 hours. The medium was then changed to pre-warmed PHH culture medium containing 4% polyethylene glycol (PEG) MW8000 (Sigma, Cat. P1458-50 ML) and 1% DMSO (Sigma, Cat. D2650). 5.8×10^6 genomic equivalents of HBV were added into the medium.
At 24 hours post-infection, the cells were gently washed with PBS and refreshed with PHH culture medium supplemented with 1% DMSO, and 0.25 mg/mL Matrix gel (Corning, Cat. 356237) at 200 μL per well. All plates were immediately placed in at 37° C. CO2 incubator.
24 hours later, serial dilutions of compounds made with DMSO were further diluted with the same culture medium (PHH culture medium supplemented with 1% DMSO and 0.25 mg/mL Matrix gel as described above) before they were added to the cells to reach desired final compound concentrations and 1% DMSO concentration. The medium containing the compounds were refreshed every three days.
At 9 days post-compound treatment, extracellular HBsAg level were measured with Chemiluminescence Immuno Assay (CLIA) kit (Autobio, HBsAg Quantitative CLIA). Extracellular HBV DNA was extracted by MagNA Pure 96 system (Roche) and then determined by quantitative PCR with the following primers and probe: […]
HBsAg IC50 and HBV DNA IC50 values were derived from the dose-response curve using 4 parameter logistic curve fit method. The compounds of formula (I) have HBsAg IC50<20 μM, particularly <1 μM; and HBV DNA IC50<50 μM.

[3] = Human microsome stability assay; assay type: in vitro ADME; settings: human liver microsomes, 1 μM test compound, 0.5 mg/mL microsomal protein, 37° C., pH 7.4, 0-30 minutes
In short: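 Parent compound remaining was measured by LC-MS/MS at 0, 3, 6, 9, 15 and 30 min, following ACN quench. Reactions held 1 μM compound and 0.5 mg/mL human liver microsomal protein in pH 7.4 phosphate buffer at 37 °C, started by NADPH regeneration (1 mM NADP, 1 mM MgCl2); controls lacked NADPH.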

Cc1ccc(-c2cc(=O)c3c(O)ccc(Cl)c3o2)c(O[C@H]2C[C@@H](C(=O)O)C2)c1 [Example B037-A, Cis-3-[2-(8-chloro-5-hydroxy-4-oxo-chromen-2-yl)-5-methyl-phenoxy]cyclobutanecarboxylic acid]
IC50 [1]: 4.43 µM
IC50 [2]: 2.04 µM
Clearance of Human microsome [3]: 9.86 mL/min/kg

COc1cc(-c2cc(=O)c3cccc(Cl)c3o2)c(OCCO[C@H]2C[C@@H](C(=O)O)C2)cc1OCC(F)(F)F [Example C080, Cis-3-[2-[2-(8-chloro-4-oxo-chromen-2-yl)-4-methoxy-5-(2,2,2-trifluoroethoxy)phenoxy]ethoxy]cyclobutanecarboxylic acid]
IC50 [1]: 4 µM
IC50 [2]: 3.51 µM
Clearance of Human microsome [3]: 6.15 mL/min/kg

COc1cc(OCCO[C@H]2C[C@@H](C(=O)O)C2)c(-c2cc(=O)c3cccc(Cl)c3o2)cc1OC(F)F [Example C086, cis-3-[2-[2-(8-chloro-4-oxo-chromen-2-yl)-4-(difluoromethoxy)-5-methoxy-phenoxy]ethoxy]cyclobutanecarboxylic acid]
IC50 [1]: 5.03 µM
IC50 [2]: 5.46 µM
Clearance of Human microsome [3]: 6.15 mL/min/kg

CCOc1cc(-c2cc(=O)c3cccc(Cl)c3o2)c(OCCO[C@H]2C[C@@H](C(=O)O)C2)cc1OC [Example C084, cis-3-[2-[2-(8-chloro-4-oxo-chromen-2-yl)-4-ethoxy-5-methoxy-phenoxy]ethoxy]cyclobutanecarboxylic acid]
IC50 [1]: 15.1 µM
IC50 [2]: 5.21 µM
Clearance of Human microsome [3]: 6.15 mL/min/kg

COc1cc(-c2cc(=O)c3cccc(Cl)c3o2)c(OCCO[C@H]2C[C@@H](C(=O)O)C2)cc1Br [Example C073, Cis-3-[2-[5-bromo-2-(8-chloro-4-oxo-chromen-2-yl)-4-methoxy-phenoxy]ethoxy]cyclobutanecarboxylic acid]
IC50 [1]: 0.92 µM
IC50 [2]: 7.56 µM
Clearance of Human microsome [3]: 7.85 mL/min/kg

O=c1cc(-c2cc(F)c(Br)cc2OCCO[C@H]2C[C@@H](C(=O)O)C2)oc2c(Cl)cccc12 [Example C044-A, Cis-3-[2-[5-bromo-2-(8-chloro-4-oxo-chromen-2-yl)-4-fluoro-phenoxy]ethoxy]cyclobutanecarboxylic acid]
IC50 [1]: 2.01 µM
IC50 [2]: 9.58 µM
Clearance of Human microsome [3]: 6.15 mL/min/kg

Cc1ccc(-c2cc(=O)c3cccc(Cl)c3o2)c(OCC(=O)O)c1 [Example A049, 2-[2-(8-chloro-4-oxo-chromen-2-yl)-5-methyl-phenoxy]acetic acid]
IC50 [1]: 0.0872 µM
IC50 [2]: 1.26 µM
Clearance of Human microsome [3]: 6.15 mL/min/kg

Cc1ccc(-c2cc(=O)c3cccc(Cl)c3o2)c(O[C@H]2C[C@@H](C(=O)O)C2)c1 [Example B018-A, Cis-3-[2-(8-chloro-4-oxo-chromen-2-yl)-5-methyl-phenoxy]cyclobutanecarboxylic acid]
IC50 [1]: 0.146 µM
IC50 [2]: 0.887 µM
Clearance of Human microsome [3]: 6.15 mL/min/kg

O=c1cc(-c2ccc(C3CC3)cc2O[C@H]2C[C@@H](C(=O)O)C2)oc2c(Cl)cccc12 [Example B035-A, cis-3-[2-(8-chloro-4-oxo-chromen-2-yl)-5-cyclopropyl-phenoxy]cyclobutanecarboxylic acid]
IC50 [1]: 0.16 µM
IC50 [2]: 1.46 µM
Clearance of Human microsome [3]: 8.46 mL/min/kg

COc1cc(-c2cc(=O)c3cccc(Cl)c3o2)c(OC2CC(C(=O)O)C2)cc1Br (stereo not drawn) [Example B004, 3-[5-bromo-2-(8-chloro-4-oxo-chromen-2-yl)-4-methoxy-phenoxy]cyclobutanecarboxylic acid]
IC50 [1]: 0.556 µM
IC50 [2]: 5.52 µM
Clearance of Human microsome [3]: 6.15 mL/min/kg

CCCOc1cc(OCCO[C@H]2C[C@@H](C(=O)O)C2)c(-c2cc(=O)c3cccc(Cl)c3o2)cc1OC [Example C077, Cis-3-[2-[2-(8-chloro-4-oxo-chromen-2-yl)-4-methoxy-5-propoxy-phenoxy]ethoxy]cyclobutanecarboxylic acid]
IC50 [1]: 3.21 µM
IC50 [2]: 9.37 µM
Clearance of Human microsome [3]: 6.15 mL/min/kg

O=C(O)COCCCOc1cc(OC(F)(F)F)ccc1-c1cc(=O)c2cccc(Cl)c2o1 [Example C014, 2-[3-[2-(8-chloro-4-oxo-chromen-2-yl)-5-(trifluoromethoxy)phenoxy]propoxy]acetic acid]
IC50 [1]: 2.19 µM
IC50 [2]: 7.8 µM
Clearance of Human microsome [3]: 8.04 mL/min/kg

Cc1cc(-c2cc(=O)c3cccc(Cl)c3o2)c(OCCCOCC(=O)O)cc1Cl [Example C019, 2-[3-[5-chloro-2-(8-chloro-4-oxo-chromen-2-yl)-4-methyl-phenoxy]propoxy]acetic acid]
IC50 [1]: 0.185 µM
IC50 [2]: 3 µM
Clearance of Human microsome [3]: 6.71 mL/min/kg

O=C(O)[C@@H]1C[C@@H](Oc2cc(C(F)(F)F)ccc2-c2cc(=O)c3cccc(Cl)c3o2)CN1S(=O)(=O)c1ccccc1 [Example B076, (2S,4R)-1-(benzenesulfonyl)-4-[2-(8-chloro-4-oxo-chromen-2-yl)-5-(trifluoromethyl)phenoxy]pyrrolidine-2-carboxylic acid]
IC50 [1]: 0.111 µM
IC50 [2]: 1.31 µM
Clearance of Human microsome [3]: 6.15 mL/min/kg

Cc1ccc(-c2cc(=O)c3cccc(Cl)c3o2)c(O[C@H]2C[C@H](C(=O)NS(C)(=O)=O)C2)c1 [Example B051-B, Trans-3-[2-(8-chloro-4-oxo-chromen-2-yl)-5-methyl-phenoxy]-N-methylsulfonyl-cyclobutanecarboxamide]
IC50 [1]: 9.22 µM
IC50 [2]: 5.3 µM
Clearance of Human microsome [3]: 6.97 mL/min/kg

O=c1cc(-c2ccc(C(F)(F)F)cc2O[C@H]2C[C@H](C(=O)NS(=O)(=O)C3CC3)C2)oc2c(Cl)cccc12 [Example B043-B, trans-3-[2-(8-chloro-4-oxo-chromen-2-yl)-5-(trifluoromethyl)phenoxy]-N-cyclopropylsulfonyl-cyclobutanecarboxamide]
IC50 [1]: 1.14 µM
IC50 [2]: 3.7 µM
Clearance of Human microsome [3]: 6.15 mL/min/kg

O=C(O)COCCOc1cc(Br)ccc1-c1cc(=O)c2cccc(Cl)c2o1 [Example C006, 2-[2-[5-bromo-2-(8-chloro-4-oxo-chromen-2-yl)phenoxy]ethoxy]acetic acid]
IC50 [1]: 1.26 µM
IC50 [2]: 3.74 µM
Clearance of Human microsome [3]: 6.15 mL/min/kg

COc1cc(O[C@H]2C[C@H](C(=O)NS(C)(=O)=O)C2)c(-c2cc(=O)c3cccc(Cl)c3o2)cc1Br [Example B055-B, Trans-3-[4-bromo-2-(8-chloro-4-oxo-chromen-2-yl)-5-methoxy-phenoxy]-N-methylsulfonyl-cyclobutanecarboxamide]
IC50 [1]: 3.88 µM
IC50 [2]: 4 µM

COc1cc(OCCO[C@H]2C[C@@H](C(=O)O)C2)c(-c2cc(=O)c3cccc(Cl)c3o2)cc1C [Example C041-A, Cis-3-[2-[2-(8-chloro-4-oxo-chromen-2-yl)-5-methoxy-4-methyl-phenoxy]ethoxy]cyclobutanecarboxylic acid]
IC50 [1]: 7.84 µM
IC50 [2]: 5.93 µM

CN(C)S(=O)(=O)CCCOc1cc(Br)ccc1-c1cc(=O)c2cccc(Cl)c2o1 [Example B071, 3-[5-bromo-2-(8-chloro-4-oxo-chromen-2-yl)phenoxy]-N,N-dimethyl-propane-1-sulfonamide]
IC50 [1]: 0.988 µM
IC50 [2]: 4.95 µM

From patent US11708344B2, “Flavone derivatives for the treatment and prophylaxis of hepatitis B virus disease” (Hoffmann-La Roche Inc., priority 2018, dated 2023)
